# According to patent US20050026897A1, “Trinuclear copper-based compound and ligand for nucleic acid scission and anticancer treatment” (priority 2001, published 2005):
# What was measured:
# [1] = system: hairpin forming oligonucleotide (OD1); assay: Strand scission of 5'-32P-labeled hairpin oligonucleotide OD1 with MPA, PAGE / phosphorimage analysis; format: biochemical
# Description: (§1) FIG. 3 is an autoradiogram of a 20% polyacrylamide denaturing gel (7 M urea) showing cleavage products of 100 nM 5′-^32P-labeled OD1 incubated with a compound of formula I and MPA (3-mercaptopropionic acid) for 15 minutes in sodium phosphate (10 mM, pH 7.5) at ambient temperature. Lane 1 depicts OD1 alone. Lane 2 depicts OD1 with 5 μM formula I. Lane 3 depicts OD1 with 5 mM MPA. Lane 4-6 depict 0.5, 1, and 5 μM formula I with 5 mM MPA and OD1. Lane 7 depicts OD1+OD2 with 10 μM formula 1 and 5 mM MPA. Lane 8 depicts A+G sequencing lane.
# A hairpin forming oligonucleotide (OD1) (SEQ ID NO. 2) (see FIG. 1) was treated with a compound of formula I in the presence of excess MPA and it was then quenched with dithiocarbamic acid. […] Selectivity was reduced to 66% if the concentration of the compound of formula I is increased 10-fold to 5 μm, due in part to an increase in reactivity primarily at A9, T10 and T21 (FIG. 3, lane 6). In the absence of either the thiol or the compound of formula I, no cleavage of OD1 was observed (FIG. 3, lanes 2 and 3). In addition, there was no enhancement of reaction at A9, T10 or T21. […] The persistent specificity for A22 when OD2 is present was likely due to residual hairpin formed in competition with duplex DNA. […]
# [2] = system: OD1+OD2 duplex DNA; assay: Strand scission of duplex-forming OD1+OD2 with MPA, PAGE; format: biochemical
# Description: as §1
# A hairpin forming oligonucleotide (OD1) (SEQ ID NO. 2) (see FIG. 1) was treated with a compound of formula I in the presence of excess MPA and it was then quenched with dithiocarbamic acid. […] Selectivity was reduced to 66% if the concentration of the compound of formula I is increased 10-fold to 5 μm, due in part to an increase in reactivity primarily at A9, T10 and T21 (FIG. 3, lane 6). In the absence of either the thiol or the compound of formula I, no cleavage of OD1 was observed (FIG. 3, lanes 2 and 3). In addition, there was no enhancement of reaction at A9, T10 or T21. […] The persistent specificity for A22 when OD2 is present was likely due to residual hairpin formed in competition with duplex DNA.
smiles,measurement,setting,value
"[Cu+2].c1cnc2c(c1)ccc1cccnc12.c1cnc2c(c1)ccc1cccnc12 [Cu(OP)2^2+, bis(1,10-phenanthroline)copper]",A22 as target of reaction,[1],not a major target
same,A22 as target of reaction,[2],not a major target
